Test results published in US6777412B2 (priority 1990, dated 2004).
Like-named read-outs stand apart in the source and are kept apart here. Marks after values point to notes of the source that are not given here.

Key:
Assay type in all cases: in vivo
[1] = system: Phytophthora infestans lycopersici
[2] = system: Plasmopara viticola; assay: Foliar fungal disease test on plants: Plasmopara viticola (Pv)
Description: (§1) The compounds were tested against a variety of foliar fungal diseases of plants. The technique employed was as follows.
(§2) The plants were grown in John Innes Potting Compost (No.1 or 2) in 4 cm diameter minipots. The test compounds were formulated either by bead milling with aqueous Dispersol T or as a solution in acetone or acetone/ethanol which was diluted to the required concentration immediately before use. For the foliage diseases, the formulations (100 ppm active ingredient except where otherwise indicated) were sprayed onto the foliage and applied to the roots of the plants in the soil. The sprays were applied to maximum retention and the root drenches to a final concentration equivalent to approximately 40 ppm a.i. in dry soil. Tween 20, to give a final concentration of 0.05%, was added when the sprays were applied to cereals.
(§3) For most of the tests the compound was applied to the soil (roots) and to the foliage (by spraying) one or two days before the plant was inoculated with the disease. An exception was the test on Erysiphe graminis in which the plants were inoculated 24 hours before treatment. Foliar pathogens were applied by spray as spore suspensions onto the leaves of test plants. After inoculation, the plants were put into an appropriate environment to allow infection to proceed and then incubated until the disease was ready for assessment. The period between inoculation and assessment varied from four to fourteen days according to the disease and environment.
(§4) The disease control vas recorded by the following grading:
(§5) 3=trace-5% of disease on untreated plants
(§6) 2=6-25% of disease on untreated plants
(§7) 1=26-59% of disease on untreated plants
(§8) 0=60-100% of disease on untreated plants

[3] = system: Thanatephorus cucumeris; assay: Foliar fungal disease test on plants: Thanatephorus cucumeris (Tc); settings: 100 ppm active ingredient foliar spray plus root drench (approx. 40 ppm a.i. in dry soil), one or two days before inoculation
Description: as §1, §2, §3, §4, §5, §6, §7, §8
Tc Thanatephorus cucumeris

[4] = system: Venturia inaequalis; assay: Foliar fungal disease test on plants: Venturia inaequalis (Vi)
Description: as §1, §2, §3, §4, §5, §6, §7, §8

[5] = system: Puccinia recondita; assay: Foliar fungal disease test on plants: Puccinia recondita (Pr)
Description: as §1, §2, §3, §4, §5, §6, §7, §8

[6] = system: Erysiphe graminis hordei; assay: Foliar fungal disease test on plants: Erysiphe graminis hordei (Egh); settings: 100 ppm active ingredient foliar spray plus root drench (approx. 40 ppm a.i. in dry soil); plants inoculated 24 hours before treatment
Description: as §1, §2, §3, §4, §5, §6, §7, §8
Egh Erysiphe graminis hordei

[7] = system: Pyricularia oryzae
[8] = system: Erysiphe graminis tritici; assay: Foliar fungal disease test on plants: Erysiphe graminis tritici (Egt)
Description: as §1, §2, §3, §4, §5, §6, §7, §8
Egt Erysiphe graminis tritici

[9] = system: Septoria nodorum; assay: Foliar fungal disease test on plants: Septoria nodorum (Sn)
Description: as §1, §2, §3, §4, §5, §6, §7, §8

[10] = 100 ppm active ingredient foliar spray plus root drench (approx. 40 ppm a.i. in dry soil), one or two days before inoculation
[11] = 100 ppm active ingredient foliar spray plus root drench (approx. 40 ppm a.i. in dry soil), plants inoculated 24 hours before treatment

Compound | disease control grading, Pil (Phytophthora infestans lycopersici) [1, 10] | disease control grading, Pv (Plasmopara viticola) [2, 10] | disease control grading, Tc (Thanatephorus cucumeris) [3] | disease control grading, Vi (Venturia inaegualis) [4, 10] | disease control grading, Pr (Puccinia recondita) [5, 10] | disease control grading, Egh (Erysiphe graminis hordei) [6] | disease control grading, Po (Pyricularia oryzae) [7, 10] | disease control grading, Egt (Erysiphe graminis tritici) ([8]; 10 ppm foliar application only) | disease control grading, Pil (Phytophthora infestans lycopersici) ([1]; 10 ppm foliar application only) | disease control grading, Pv (Plasmopara viticola) ([2]; 10 ppm foliar application only) | disease control grading, Sn (Septoria nodorum) ([9]; 10 ppm foliar application only) | disease control grading, Vi (Venturia inaegualis) ([4]; 10 ppm foliar application only) | disease control grading, Pr (Puccinia recondita) ([5]; 10 ppm foliar application only) | disease control grading, Po (Pyricularia oryzae) ([7]; 10 ppm foliar application only) | disease control grading, Sn (Septoria nodorum) [9, 10] | disease control grading, Egt (Erysiphe graminis tritici) [8, 11]
CO/C=C(/C(=O)OC)c1ccccc1Oc1cc(OCc2ccc([N+](=O)[O-])cc2)ncn1 [133 of Table I] | 0 (0=60-100% of disease on untreated plants) | 4 (4=no disease) | 4 (4=no disease) | 3 (3=trace-5% of disease on untreated plants) | 4 (4=no disease) | 4 (4=no disease) | 3 (3=trace-5% of disease on untreated plants) |  |  |  |  |  |  |  |  | 
CO/C=C(/C(=O)OC)c1ccccc1Oc1cc(OC/C=C/c2ccccc2)ncn1 [376 of Table I] | 4 (4=no disease) | 4 (4=no disease) | 4 (4=no disease) | 4 (4=no disease) | 4 (4=no disease) | 4 (4=no disease) | 3 (3=trace-5% of disease on untreated plants) |  |  |  |  |  |  |  |  | 
CO/C=C(/C(=O)OC)c1ccccc1Oc1cc(-c2sc(-c3ccccc3O)nc2C)ncn1 [399 of Table I] |  |  |  |  |  |  |  | 0^a (0=60-100% of disease on untreated plants) | 0^a (0=60-100% of disease on untreated plants) | 4^a (4=no disease) | 0^a (0=60-100% of disease on untreated plants) | 3^a (3=trace-5% of disease on untreated plants) | 0^a (0=60-100% of disease on untreated plants) | 0^a (0=60-100% of disease on untreated plants) |  | 
CO/C=C(/C(=O)OC)c1ccccc1Oc1cc(OCCCc2ccccc2Cl)ncn1 [384 of Table I] | 4 (4=no disease) | 4 (4=no disease) | 4 (4=no disease) | 4 (4=no disease) | 4 (4=no disease) | 4 (4=no disease) |  |  |  |  |  |  |  |  | 4 (4=no disease) | 
CO/C=C(/C(=O)OC)c1ccccc1Oc1cc(OCc2ccccc2C(F)(F)F)ncn1 [385 of Table I] | 4 (4=no disease) | 4 (4=no disease) | 4 (4=no disease) | 4 (4=no disease) | 4 (4=no disease) | 4 (4=no disease) |  |  |  |  |  |  |  |  | 4 (4=no disease) | 
CO/C=C(/C(=O)OC)c1ccccc1Oc1cc(OCCOc2c(F)cccc2C#N)ncn1 [397 of Table I] | 3 (3=trace-5% of disease on untreated plants) | 4 (4=no disease) |  | 4 (4=no disease) | 4 (4=no disease) |  | 4 (4=no disease) |  |  |  |  |  |  |  | 3 (3=trace-5% of disease on untreated plants) | 4 (4=no disease)
CO/C=C(/C(=O)OC)c1ccccc1Oc1cc(Cc2ccccc2)ncn1 [9 of Table I] | 4 (4=no disease) | 4 (4=no disease) |  | 4 (4=no disease) | 0 (0=60-100% of disease on untreated plants) |  | 4 (4=no disease) |  |  |  |  |  |  |  | 4 (4=no disease) | 4 (4=no disease)
CO/C=C(/C(=O)OC)c1ccccc1Oc1cc(OCc2ccccc2[N+](=O)[O-])ncn1 [375 of Table I] | 0 (0=60-100% of disease on untreated plants) | 3 (3=trace-5% of disease on untreated plants) | 4 (4=no disease) | 3 (3=trace-5% of disease on untreated plants) | 4 (4=no disease) | 4 (4=no disease) | 4 (4=no disease) |  |  |  |  |  |  |  |  | 
CO/C=C(/C(=O)OC)c1ccccc1Oc1cc(OCc2ccncc2)ncn1 [236 of Table I] | 4 (4=no disease) | 4 (4=no disease) |  | 4 (4=no disease) | 4 (4=no disease) |  | 2 (2=6-25% of disease on untreated plants) |  |  |  |  |  |  |  | 3 (3=trace-5% of disease on untreated plants) | 3 (3=trace-5% of disease on untreated plants)
CO/C=C(/C(=O)OC)c1ccccc1Oc1cc(Sc2nc3ccccc3s2)ncn1 [530 of Table I] | 4 (4=no disease) | 4 (4=no disease) |  | 4 (4=no disease) | 3 (3=trace-5% of disease on untreated plants) |  | 0 (0=60-100% of disease on untreated plants) |  |  |  |  |  |  |  | 4 (4=no disease) | 4 (4=no disease)
CO/C=C(/C(=O)OC)c1ccccc1Oc1cc(O/N=C(\C)c2cnccn2)ncn1 [404 of Table I] | 1 (1=26-59% of disease on untreated plants) | 4 (4=no disease) |  | 4 (4=no disease) | 4 (4=no disease) |  | 3 (3=trace-5% of disease on untreated plants) |  |  |  |  |  |  |  | 3 (3=trace-5% of disease on untreated plants) | 4 (4=no disease)
CO/C=C(/C(=O)OC)c1ccccc1Oc1cc(OCc2ccccn2)ncn1 [222 of Table I] | 0 (0=60-100% of disease on untreated plants) | 4 (4=no disease) |  | 4 (4=no disease) | 4 (4=no disease) |  | 4 (4=no disease) |  |  |  |  |  |  |  | 3 (3=trace-5% of disease on untreated plants) | 4 (4=no disease)
CCOc1ccccc1Nc1cc(Oc2ccccc2/C(=C\OC)C(=O)OC)ncn1 [401 of Table I] | 3 (3=trace-5% of disease on untreated plants) | 4 (4=no disease) |  | 4 (4=no disease) | 4 (4=no disease) |  | 0 (0=60-100% of disease on untreated plants) |  |  |  |  |  |  |  | 4 (4=no disease) | 4 (4=no disease)
CO/C=C(/C(=O)OC)c1ccccc1Oc1cc(-c2c(N)oc3ccccc23)ncn1 [400 of Table I] | 4 (4=no disease) | 4 (4=no disease) |  | 4 (4=no disease) | 4 (4=no disease) |  | 0 (0=60-100% of disease on untreated plants) |  |  |  |  |  |  |  | 4 (4=no disease) | 4 (4=no disease)
CO/C=C(/C(=O)OC)c1ccccc1Oc1cc(OCc2ccc(F)cc2)ncn1 [405 of Table I] | 4 (4=no disease) | 4 (4=no disease) |  | 4 (4=no disease) | 4 (4=no disease) |  | 4 (4=no disease) |  |  |  |  |  |  |  | 0 (0=60-100% of disease on untreated plants) | 4 (4=no disease)
